Results from patent US12662451B2, “Chemical compounds and uses thereof” (GLAXOSMITHKLINE INTELLECTUAL PROPERTY (NO.4) LIMITED, priority 2023, dated 2026).
Read-outs that look alike come from different tables or passages of the source.

Tests used:
[1] = target: T1, recombinant full-length WRN protein (1-1432) (Homo sapiens, UniProt Q14191); assay: WRN unwinding activity, fluorogenic 384-well assay (Example A); format: biochemical; details: WRN unwinding activity, 4 hr; Table 2; read-out: 4 hr UNW pIC50 (converted)
T1 construct: recombinant full-length WRN protein (1-1432)
T1 sequence (Q14191 whole entry): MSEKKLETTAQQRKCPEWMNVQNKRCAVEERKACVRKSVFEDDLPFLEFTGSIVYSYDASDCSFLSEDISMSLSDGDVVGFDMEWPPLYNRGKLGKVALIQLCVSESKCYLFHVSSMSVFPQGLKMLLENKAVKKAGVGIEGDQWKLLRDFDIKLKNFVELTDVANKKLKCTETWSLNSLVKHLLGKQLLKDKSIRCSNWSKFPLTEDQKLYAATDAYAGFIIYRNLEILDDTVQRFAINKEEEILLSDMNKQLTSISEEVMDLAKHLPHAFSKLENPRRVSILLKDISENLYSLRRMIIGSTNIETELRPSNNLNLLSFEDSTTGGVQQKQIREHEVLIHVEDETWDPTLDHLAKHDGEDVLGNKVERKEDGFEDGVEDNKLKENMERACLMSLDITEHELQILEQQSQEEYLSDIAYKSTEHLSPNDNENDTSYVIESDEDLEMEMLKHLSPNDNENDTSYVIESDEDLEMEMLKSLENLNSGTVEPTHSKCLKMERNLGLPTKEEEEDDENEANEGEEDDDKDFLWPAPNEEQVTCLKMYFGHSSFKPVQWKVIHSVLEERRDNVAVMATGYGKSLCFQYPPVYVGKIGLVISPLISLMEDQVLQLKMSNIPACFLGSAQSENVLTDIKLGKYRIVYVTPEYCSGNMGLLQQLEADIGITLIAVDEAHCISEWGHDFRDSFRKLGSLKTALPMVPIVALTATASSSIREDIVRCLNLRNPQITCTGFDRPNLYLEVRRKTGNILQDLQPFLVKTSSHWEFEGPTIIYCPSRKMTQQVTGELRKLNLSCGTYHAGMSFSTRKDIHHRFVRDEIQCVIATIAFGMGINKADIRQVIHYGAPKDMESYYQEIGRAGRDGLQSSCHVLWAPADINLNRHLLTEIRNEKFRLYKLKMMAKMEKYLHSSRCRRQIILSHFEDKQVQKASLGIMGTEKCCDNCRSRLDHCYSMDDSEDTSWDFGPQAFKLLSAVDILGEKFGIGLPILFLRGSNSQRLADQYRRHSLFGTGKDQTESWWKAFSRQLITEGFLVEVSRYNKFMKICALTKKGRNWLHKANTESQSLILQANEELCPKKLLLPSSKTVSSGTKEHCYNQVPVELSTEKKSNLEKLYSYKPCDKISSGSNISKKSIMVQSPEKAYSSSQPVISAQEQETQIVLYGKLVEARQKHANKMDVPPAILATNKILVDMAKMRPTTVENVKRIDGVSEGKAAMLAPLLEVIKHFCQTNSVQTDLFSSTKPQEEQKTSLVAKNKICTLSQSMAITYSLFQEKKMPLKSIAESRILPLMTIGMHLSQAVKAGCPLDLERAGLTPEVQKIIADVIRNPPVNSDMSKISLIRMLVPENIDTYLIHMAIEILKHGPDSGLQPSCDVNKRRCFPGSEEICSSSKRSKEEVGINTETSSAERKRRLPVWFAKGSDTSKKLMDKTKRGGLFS
Summary of the method: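 Read-out is end-point unwinding of a fluorophore/quencher duplex (ex 525, em 598 nm) after 60 min with 200 μM ATP and 12 nM DNA (2× stocks), EDTA stop. Compound first sat 4 h with 200 pM WRN (2× stock) in pH 8.0 Tris buffer; four-parameter fit gives pIC50.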

[2] = Cell culture media unbound percentage and stability by rapid equilibrium dialysis (Example C); format: in vitro ADME; details: bovine, cell assay medium (RPMI-1640 with 10% fetal bovine serum), pH 7.4, rapid equilibrium dialysis, 4 hours at 37° C., read-out: Cell Culture Media Binding (% unbound)
Summary of the method: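 Percent unbound in cell assay medium came from the LC-MS/MS receiver:donor peak area ratio, with stability taken as the 240 min over 0 min ratio. Set-up: 1 μM nominal compound in medium dialysed against pH 7.4 PBS (100 mM phosphate, 150 mM NaCl), 4 h, 37° C, shaken, in triplicate.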

[3] = tested on: SW48 human colorectal cancer cells; assay: Calculated free drug potency in SW48 cell assay, corrected with media free fraction (Example C); format: cell-based; details: Homo sapiens, SW48, SW48 pCC50 corrected with measured free fraction in cell assay media
Summary of the method: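 Free drug potency derives from correcting SW48 assay concentrations with the unbound fraction in medium. That fraction came from RED against pH 7.4 PBS, 1 μM nominal compound, 4 h at 37 °C, quantified by LC-MS/MS peak area ratios at T=240 versus T=0 min.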

[4] = tested on: SW48 human colorectal cancer cells (MSI-H cancer cells); assay: SW48 cell viability, CellTiter-Glo, 120 hours (Example B); details: Homo sapiens
[5] = SW48, 120 h, read-out: SW48 pCC50, SW48 cell viability, 120 hours incubation (converted), Table 2
[6] = SW48, read-out: SW48 pCC50, measured potency from Example B, as repeated in Table 3 (converted)

IC50 [1] [nM]	fraction unbound at 4 h, 1 µM [2]	SMILES	CC50 [3] [nM]	CC50 [4, 5] [nM]	CC50 [4, 6] [nM]
1.58	0.256	CC(=O)N(C)[C@H]1C[C@H](c2ccc(N(C)S(=O)(=O)c3ccc4c(c3)nc(C)n4C)cc2)[C@@H](C(=O)O)[C@H](C(=O)Nc2ccc(C(F)(F)F)cc2F)C1 (stereo in doubt) [Example 294, rel-(1R,2R,4S,6S)-2-((2-fluoro-4-(trifluoromethyl)phenyl)carbamoyl)-4-(N-methylacetamido)-6-(4-((N,1,2-trimethyl-1H-benzo[d]imidazole)-5-sulfonamido)phenyl)cyclohexane-1-carboxylic acid]	1620	6310	6310
1.58	0.406	Cc1nc2cc(S(=O)(=O)N(C)c3ccc([C@H]4C[C@@H](N)C[C@@H](C(=O)Nc5ccc(C(F)(F)F)cc5F)[C@@H]4C(=O)O)cc3)ccc2n1C (stereo in doubt) [Example 301, rel-(1R,2R,4R,6S)-4-amino-2-((2-fluoro-4-(trifluoromethyl)phenyl)carbamoyl)-6-(4-((N,1,2-trimethyl-1H-benzo[d]imidazole)-5-sulfonamido)phenyl)cyclohexane-1-carboxylic acid]	1620	3980	3980
1.58	0.273	CC(=O)N1C[C@H](c2ccc(N(C)S(=O)(=O)c3ccc4c(c3)nc(C)n4C)cc2)[C@@H](C(=O)O)[C@H](C(=O)Nc2ccc(C(F)(F)F)cc2F)C1 (stereo in doubt) [Example 310, rel-(3R,4S,5R)-1-acetyl-3-((2-fluoro-4-(trifluoromethyl)phenyl)carbamoyl)-5-(4-((N,1,2-trimethyl-1H-benzo[d]imidazole)-5-sulfonamido)phenyl)piperidine-4-carboxylic acid]	437	1580	1580
2.51	0.0856	Cc1nc2cc(S(=O)(=O)N(C)c3ccc([C@H]4C[C@@H](OC(C)C)C[C@@H](C(=O)Nc5ccc(C(F)(F)F)cc5F)[C@@H]4C(=O)O)cc3)ccc2n1C (stereo in doubt) [Example 311, rel-(1R,2R,4R,6S)-2-((2-fluoro-4-(trifluoromethyl)phenyl)carbamoyl)-4-isopropoxy-6-(4-((N,1,2-trimethyl-1H-benzo[d]imidazole)-5-sulfonamido)phenyl)cyclohexane-1-carboxylic acid]	21.4	251	251
1.58	0.0795	Cc1nc2cc(S(=O)(=O)N(C)c3ccc([C@H]4C[C@@H](OCC5CC5)C[C@@H](C(=O)Nc5ccc(C(F)(F)F)cc5F)[C@@H]4C(=O)O)cc3)ccc2n1C (stereo in doubt) [Example 314, rel-(1R,2R,4R,6S)-4-(cyclopropylmethoxy)-2-((2-fluoro-4-(trifluoromethyl)phenyl)carbamoyl)-6-(4-((N,1,2-trimethyl-1H-benzo[d]imidazole)-5-sulfonamido)phenyl)cyclohexane-1-carboxylic acid]	12.6	158	158
63.1	0.384	COCCO[C@@H]1C[C@H](C(=O)Nc2ccc(C(F)(F)F)cc2F)[C@@H](C(=O)O)[C@H](c2ccc(N(C)S(=O)(=O)c3ccc4c(c3)nc(C)n4C)cc2)C1 (stereo in doubt) [Example 315, rel-(1R,2R,4R,6S)-2-((2-fluoro-4-(trifluoromethyl)phenyl)carbamoyl)-4-(2-methoxyethoxy)-6-(4-((N,1,2-trimethyl-1H-benzo[d]imidazole)-5-sulfonamido)phenyl)cyclohexane-1-carboxylic acid]	3800	10000	
